Source: US12077503B2, “Substituted cyclic amides and their use as herbicides” (FMC CORPORATION, priority 2015, dated 2024)

Tests used:
Type in all cases: in vivo
[1] = system: giant foxtail (Setaria faberi); experiment: Test G Pre-Emergence Protocol; conditions: Setaria faberi, pre-emergence, 312 h, evaluated after 13 days
Outline: (§1)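 Visual injury (0–100) at day 13 after a single pre-emergence spray. Rates: 15.625, 62.5, 250 g/ha in acetone–water 50:50 with 0.5% Tween 20. Growth conditions: 24/16° C, 14 h light, 65% humidity.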

[2] = system: redroot pigweed (Amaranthus retroflexus); experiment: Test G Pre-Emergence Protocol; conditions: Amaranthus retroflexus, pre-emergence, 312 h, evaluated after 13 days
Outline: as §1

[3] = system: ivy-leaved morning glory (Ipomoea hederacea); experiment: Test G Pre-Emergence Protocol; conditions: Ipomoea, pre-emergence, 312 h, evaluated after 13 days
Outline: as §1

corn (Zea mays) [4] = experiment: Test G Pre-Emergence Protocol; conditions: Zea mays, pre-emergence, 312 h, evaluated after 13 days
Outline: as §1

[5] = system: velvetleaf (Abutilon theophrasti); experiment: Test G Pre-Emergence Protocol; conditions: Abutilon theophrasti, pre-emergence, 312 h, evaluated after 13 days
Outline: as §1

[6] = system: barnyardgrass (Echinochloa crus-galli); experiment: Test G Pre-Emergence Protocol; conditions: Echinochloa crus-galli, pre-emergence, 312 h, evaluated after 13 days
Outline: as §1

[7] = system: giant foxtail (Setaria faberi); experiment: Test G Post-Emergence Protocol; conditions: Setaria faberi, post-emergence, 312 h
Outline: (§2)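 A glasshouse post-emergence test: 8-day-old plants sprayed at 15.625, 62.5 or 250 g/ha, then grown at 24/16 °C day/night with 14 h light and 65% humidity. Damage rated 13 days later, 0–100.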

[8] = system: redroot pigweed (Amaranthus retroflexus); experiment: Test G Post-Emergence Protocol; conditions: Amaranthus retroflexus, post-emergence, 312 h
Outline: as §2

[9] = system: ivy-leaved morning glory (Ipomoea hederacea); experiment: Test G Post-Emergence Protocol; conditions: Ipomoea, post-emergence, 312 h
Outline: as §2

corn (Zea mays) [10] = experiment: Test G Post-Emergence Protocol; conditions: Zea mays, post-emergence, 312 h
Outline: as §2

[11] = system: velvetleaf (Abutilon theophrasti); experiment: Test G Post-Emergence Protocol; conditions: Abutilon theophrasti, post-emergence, 312 h
Outline: as §2

[12] = system: barnyardgrass (Echinochloa crus-galli); experiment: Test G Post-Emergence Protocol; conditions: Echinochloa crus-galli, post-emergence, 312 h
Outline: as §2

## CN1C[C@@H](c2ccc(C(F)(F)F)cc2)[C@H](C(=O)Nc2ccccc2Cl)C1=O (racemic) [Compound 1598]
[1]; 15.625 g ai/ha, read-out: Foxtail, Giant damage rating (100=total damage to plant; 0=no damage to plant)
  pest or weed control at 15.625 g/ha: 60%
[1]; 62.5 g ai/ha, 100=total damage to plant, 0=no damage to plant, read-out: plant damage rating, Foxtail, Giant
  pest or weed control at 62.5 g/ha: 80%
[1]; 250 g ai/ha, read-out: Foxtail, Giant damage rating (100=total damage to plant; 0=no damage to plant)
  pest or weed control at 250 g/ha: 90%
[2]; 15.625 g ai/ha, read-out: Pigweed, Redroot damage rating (100=total damage to plant; 0=no damage to plant)
  pest or weed control at 15.625 g/ha: 10%
[2]; 62.5 g ai/ha, 100=total damage to plant, 0=no damage to plant, read-out: plant damage rating, Pigweed, Redroot
  pest or weed control at 62.5 g/ha: 40%
[2]; 250 g ai/ha, read-out: Pigweed, Redroot damage rating (100=total damage to plant; 0=no damage to plant)
  pest or weed control at 250 g/ha: 50%
[3]; 15.625 g ai/ha, read-out: Morning-glory, Ivy-leaved damage rating (100=total damage to plant; 0=no damage to plant)
  pest or weed control at 15.625 g/ha: 10%
[3]; 62.5 g ai/ha, 100=total damage to plant, 0=no damage to plant, read-out: plant damage rating, Morningglory, Ivy-leaved
  pest or weed control at 62.5 g/ha: 20%
[3]; 250 g ai/ha, read-out: Morningglory, Ivy-leaved damage rating (100=total damage to plant; 0=no damage to plant)
  pest or weed control at 250 g/ha: 40%
Corn (Zea mays) [4]; 15.625 g ai/ha, read-out: Corn damage rating (100=total damage to plant; 0=no damage to plant)
  plant injury at 15.625 g/ha: 0%
Corn (Zea mays) [4]; 62.5 g ai/ha, 100=total damage to plant, 0=no damage to plant, read-out: plant damage rating, Corn
  plant injury at 62.5 g/ha: 10%
Corn (Zea mays) [4]; 250 g ai/ha, read-out: Corn damage rating (100=total damage to plant; 0=no damage to plant)
  plant injury at 250 g/ha: 70%
[5]; 15.625 g ai/ha, read-out: Velvetleaf damage rating (100=total damage to plant; 0=no damage to plant)
  pest or weed control at 15.625 g/ha: 0%
[5]; 62.5 g ai/ha, 100=total damage to plant, 0=no damage to plant, read-out: plant damage rating, Velvetleaf
  pest or weed control at 62.5 g/ha: 10%
[5]; 250 g ai/ha, read-out: Velvetleaf damage rating (100=total damage to plant; 0=no damage to plant)
  pest or weed control at 250 g/ha: 60%
[6]; 15.625 g ai/ha, read-out: Barnyard grass damage rating (100=total damage to plant; 0=no damage to plant)
  pest or weed control at 15.625 g/ha: 0%
[6]; 62.5 g ai/ha, 100=total damage to plant, 0=no damage to plant, read-out: plant damage rating, Barnyardgrass
  pest or weed control at 62.5 g/ha: 70%
[6]; 250 g ai/ha, read-out: Barnyardgrass damage rating (100=total damage to plant; 0=no damage to plant)
  pest or weed control at 250 g/ha: 80%
[7]; 15.625 g ai/ha, evaluated after 13 days (100=total damage to plant; 0=no damage to plant), read-out: Foxtail, Giant damage rating
  pest or weed control at 15.625 g/ha: 80%
[7]; 62.5 g ai/ha, evaluated after 13 days, read-out: Foxtail, Giant damage rating (100=total damage to plant; 0=no damage to plant)
  pest or weed control at 62.5 g/ha: 80%
[7]; 250 g ai/ha, evaluated after 13 days, read-out: damage to plant, Foxtail, Giant (100=total damage to plant; 0=no damage to plant)
  pest or weed control at 250 g/ha: 80%
[8]; 15.625 g ai/ha, evaluated after 13 days (100=total damage to plant; 0=no damage to plant), read-out: Pigweed, Redroot damage rating
  pest or weed control at 15.625 g/ha: 30%
[8]; 62.5 g ai/ha, evaluated after 13 days, read-out: Pigweed, Redroot damage rating (100=total damage to plant; 0=no damage to plant)
  pest or weed control at 62.5 g/ha: 50%
[8]; 250 g ai/ha, evaluated after 13 days, read-out: damage to plant, Pigweed, Redroot (100=total damage to plant; 0=no damage to plant)
  pest or weed control at 250 g/ha: 70%
[9]; 15.625 g ai/ha, evaluated after 13 days (100=total damage to plant; 0=no damage to plant), read-out: Morningglory, Ivy-leaved damage rating
  pest or weed control at 15.625 g/ha: 30%
[9]; 62.5 g ai/ha, evaluated after 13 days, read-out: Morningglory, Ivy-leaved damage rating (100=total damage to plant; 0=no damage to plant)
  pest or weed control at 62.5 g/ha: 60%
[9]; 250 g ai/ha, evaluated after 13 days, read-out: damage to plant, Morningglory, Ivy-leaved (100=total damage to plant; 0=no damage to plant)
  pest or weed control at 250 g/ha: 70%
Corn (Zea mays) [10]; 15.625 g ai/ha, evaluated after 13 days (100=total damage to plant; 0=no damage to plant), read-out: Corn damage rating
  plant injury at 15.625 g/ha: 0%
Corn (Zea mays) [10]; 62.5 g ai/ha, evaluated after 13 days, read-out: Corn damage rating (100=total damage to plant; 0=no damage to plant)
  plant injury at 62.5 g/ha: 40%
Corn (Zea mays) [10]; 250 g ai/ha, evaluated after 13 days, read-out: damage to plant, Corn (100=total damage to plant; 0=no damage to plant)
  plant injury at 250 g/ha: 60%
[11]; 15.625 g ai/ha, evaluated after 13 days (100=total damage to plant; 0=no damage to plant), read-out: Velvetleaf damage rating
  pest or weed control at 15.625 g/ha: 0%
[11]; 62.5 g ai/ha, evaluated after 13 days, read-out: Velvetleaf damage rating (100=total damage to plant; 0=no damage to plant)
  pest or weed control at 62.5 g/ha: 20%
[11]; 250 g ai/ha, evaluated after 13 days, read-out: damage to plant, Velvetleaf (100=total damage to plant; 0=no damage to plant)
  pest or weed control at 250 g/ha: 50%
[12]; 15.625 g ai/ha, evaluated after 13 days (100=total damage to plant; 0=no damage to plant), read-out: Barnyardgrass damage rating
  pest or weed control at 15.625 g/ha: 30%
[12]; 62.5 g ai/ha, evaluated after 13 days, read-out: Barnyardgrass damage rating (100=total damage to plant; 0=no damage to plant)
  pest or weed control at 62.5 g/ha: 80%
[12]; 250 g ai/ha, evaluated after 13 days, read-out: damage to plant, Barnyardgrass (100=total damage to plant; 0=no damage to plant)
  pest or weed control at 250 g/ha: 70%
